IC50 data for 45 molecules are collected here from patent publication US20240336602A1 (Katholieke Universiteit Leuven, priority 2020, published 2024).

This assay deals with T1, mouse TRPM3a2 (mTRPM3) ion channel (Mus musculus, UniProt J9SQF3).
T1 construct: expressed in transfected cells; host or cells: flip-in HEK293
The assay is described as follows: TRPM3 ion channel driven Ca2+ uptake, Fluo-4 AM assay (PS-stimulated, overexpressing flip-in HEK293 cells). Format: cell-based. In a few lines:
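Flip-in HEK293 cells overexpressing mTRPM3α2, loaded with Fluo-4 AM, were added to wells with compound plus 50 μM pregnenolone sulfate in Ca2+-containing Krebs buffer and read immediately (ex 485/em 535 nm). Percent inhibition was scaled between PS-plus-vehicle and positive-control-inhibitor signals.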

Where [1] appears, read: PS (50 μM) stimulated Ca2+ influx, HEK293, cpds 300-399.
The mark [2] stands for this setting: PS (50 μM) stimulated, cpds. 400-499.
Setting [3] is: PS (50 μM) stimulated, cpds. 500-599.
Setting [4] is: PS (50 μM) stimulated, cpds. 600-666.
The mark [5] stands for this setting: PS (50 μM) stimulated, cpd 001-199.
Setting [6] is: PS (50 μM) stimulated Ca2+ influx, HEK293, cpds 200-299.

Molecules are shown by their SMILES. Several values for one entry are separate records, joined by “and”; a condition that tells them apart may be missing. Equal values may be shown once.

T1 sequence (J9SQF3 1-1709 isoform J9SQF3-12): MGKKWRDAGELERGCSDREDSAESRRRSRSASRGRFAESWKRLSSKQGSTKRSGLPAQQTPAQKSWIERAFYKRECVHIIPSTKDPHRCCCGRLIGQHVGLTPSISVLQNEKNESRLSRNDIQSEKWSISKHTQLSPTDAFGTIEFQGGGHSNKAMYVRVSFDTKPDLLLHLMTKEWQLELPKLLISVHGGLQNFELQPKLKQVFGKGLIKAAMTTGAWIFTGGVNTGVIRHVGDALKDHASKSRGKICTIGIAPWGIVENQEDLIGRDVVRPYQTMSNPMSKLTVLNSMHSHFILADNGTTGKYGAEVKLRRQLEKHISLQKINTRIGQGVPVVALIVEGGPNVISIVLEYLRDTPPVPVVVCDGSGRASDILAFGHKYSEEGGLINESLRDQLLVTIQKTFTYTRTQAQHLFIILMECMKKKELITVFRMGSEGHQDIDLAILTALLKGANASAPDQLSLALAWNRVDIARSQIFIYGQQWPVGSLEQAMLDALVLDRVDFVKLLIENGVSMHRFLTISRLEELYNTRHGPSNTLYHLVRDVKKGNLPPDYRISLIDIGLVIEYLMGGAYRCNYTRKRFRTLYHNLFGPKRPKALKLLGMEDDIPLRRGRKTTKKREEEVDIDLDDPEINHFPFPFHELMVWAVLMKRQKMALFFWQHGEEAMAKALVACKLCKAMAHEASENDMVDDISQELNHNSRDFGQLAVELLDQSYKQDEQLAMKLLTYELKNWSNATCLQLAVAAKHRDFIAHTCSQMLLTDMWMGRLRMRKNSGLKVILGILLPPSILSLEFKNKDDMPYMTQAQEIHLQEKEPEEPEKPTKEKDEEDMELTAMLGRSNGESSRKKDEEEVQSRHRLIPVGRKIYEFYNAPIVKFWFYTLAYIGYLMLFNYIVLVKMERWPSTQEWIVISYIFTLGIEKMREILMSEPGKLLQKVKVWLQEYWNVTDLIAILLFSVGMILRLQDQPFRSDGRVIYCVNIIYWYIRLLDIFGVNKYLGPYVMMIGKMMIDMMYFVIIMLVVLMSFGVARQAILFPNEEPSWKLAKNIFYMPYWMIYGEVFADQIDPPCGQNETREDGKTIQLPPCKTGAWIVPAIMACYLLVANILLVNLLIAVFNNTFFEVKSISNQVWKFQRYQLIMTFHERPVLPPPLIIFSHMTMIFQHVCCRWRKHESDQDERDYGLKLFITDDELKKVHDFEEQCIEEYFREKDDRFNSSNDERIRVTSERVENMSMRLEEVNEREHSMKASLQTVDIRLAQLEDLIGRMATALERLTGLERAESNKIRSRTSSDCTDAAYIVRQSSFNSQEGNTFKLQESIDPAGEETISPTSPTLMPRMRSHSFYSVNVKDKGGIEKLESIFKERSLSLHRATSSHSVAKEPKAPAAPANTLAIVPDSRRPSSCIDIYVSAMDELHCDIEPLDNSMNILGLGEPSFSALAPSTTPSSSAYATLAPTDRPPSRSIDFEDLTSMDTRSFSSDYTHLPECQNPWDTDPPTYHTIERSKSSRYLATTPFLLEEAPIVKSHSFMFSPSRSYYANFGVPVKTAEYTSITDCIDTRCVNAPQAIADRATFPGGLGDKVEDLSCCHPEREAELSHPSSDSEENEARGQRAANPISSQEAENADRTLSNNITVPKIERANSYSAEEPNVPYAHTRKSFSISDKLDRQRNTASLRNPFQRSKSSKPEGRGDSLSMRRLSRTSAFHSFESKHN

For the molecule `Cc1oc2ccc(OCc3cccnc3O)cc2c1C(=O)NC1COCC1O` (stereo not drawn) [350 - En 1], the IC50 under setting [1] is ≤ 1000 nM. As for `Cc1ncc(COc2ccc3oc(C)c(C(=O)N[C@@H](CO)c4nc5ccccc5[nH]4)c3c2)s1` [401 - En 1, (R)-N-(1-(1H-benzo[d]imidazol-2-yl)-2-hydroxyethyl)-2-methyl-5-((2-methylthiazol-5-yl)methoxy)benzofuran-3-carboxamide], the IC50 under setting [2] is ≤ 1000 nM. `Cc1ncsc1COc1ccc2oc(C)c(C(=O)NC3CCN(CCOCCO)C3=O)c2c1` (stereo not drawn) [402 - En 1] yielded an IC50 under setting [2] of 1000 to 20000 nM.

On to `Cc1ncc(COc2ccc3oc(C)c(C(=O)NC(C)C(N)=O)c3c2)s1` (stereo not drawn) [434 - En 2], for which the IC50 under setting [2] is ≤ 1000 nM. Same read-out and setting: the same measure for `Cc1oc2ccc(OCc3ccccn3)cc2c1C(=O)NC(C)C(N)=O` (stereo not drawn) [435 - En 2]: ≤ 1000 nM; for `Cc1ncsc1COc1ccc2oc(C)c(C(=O)NC(COC(F)F)C(N)=O)c2c1` (stereo not drawn) [448 - En 1]: ≤ 1000 nM; for `Cc1oc2ccc(OCc3ccccn3)cc2c1C(=O)NC(CO)C(N)=O` (stereo not drawn) [455 - En 2]: ≤ 1000 nM.

`Cc1ncsc1COc1ccc2oc(C)c(C(=O)NC(CCO)C(N)=O)c2c1` (stereo not drawn) [469 - En 1]: the IC50 under setting [2] is ≤ 1000 nM.

For `Cc1ncc(COc2ccc3oc(C)c(C(=O)NC4(CO)CCNC4=O)c3c2)o1` (stereo not drawn) [515 - En 1], the IC50 under setting [3] was ≤ 1000 nM and 1000 to 20000 nM. `Cc1ncc(COc2ccc3oc(C)c(C(=O)NC4(CO)CCNC4=O)c3c2)s1` (stereo not drawn) [517 - En 1]: the half-inhibitory concentration (IC50) under setting [3] is ≤ 1000 nM. As for `Cc1ncsc1COc1ccc2oc(C)c(C(=O)NCC(C(N)=O)N(C)C)c2c1` (stereo not drawn) [575 - En 1], the IC50 under setting [3] is ≤ 1000 nM. Molecule `Cc1oc2ccc(OCc3nccn3C)cc2c1C(=O)NC1COCC1O` (stereo not drawn) [653 - En 1] gave an IC50 under setting [4] of 1000 to 20000 nM. Regarding `Cc1oc2ccc(OCc3nccn3C)cc2c1C(=O)NC1COCC1O` (stereo not drawn) [654 - En 2], the IC50 under setting [4] lay within 1000 to 20000 nM. As for `Cc1oc2ccc(OCc3nccs3)cc2c1C(=O)NC1CCNC1=O` (stereo not drawn) [compound 036, 2-methyl-N-(2-oxopyrrolidin-3-yl)-5-(thiazol-2-ylmethoxy)benzofuran-3-carboxamide], under setting [5], the IC50 is ≤ 1000 nM.

Consider `COc1ncccc1COc1ccc2oc(C)c(C(=O)NC3CCNC3=O)c2c1` (stereo not drawn) [compound 046, 5-((2-methoxypyridin-3-yl)methoxy)-2-methyl-N-(2-oxopyrrolidin-3-yl)benzofuran-3-carboxamide], for which, under setting [5], the IC50 was ≤ 1000 nM. Turning to `Cc1ncsc1COc1cc(F)c2oc(C)c(C(=O)NC3(CO)CCOCC3)c2c1` [compound 122, 7-fluoro-N-(4-(hydroxymethyl)tetrahydro-2H-pyran-4-yl)-2-methyl-5-((4-methylthiazol-5-yl)-methoxy)benzofuran-3-carboxamide], the IC50 under setting [5] lay in the range of 1000 to 20000 nM. On the same count and under the same terms, the figure for `Cc1cc2oc(C)c(C(=O)NC3(CO)CCOCC3)c2cc1OCc1scnc1C` [compound 185, N-(4-(hydroxymethyl)tetrahydro-2H-pyran-4-yl)-2,6-dimethyl-5-((4-methylthiazol-5-yl)methoxy)-benzofuran-3-carboxamide] is 1000 to 20000 nM; for `Cc1ncsc1COc1cc(C)c2oc(C)c(C(=O)NC3(CO)CCOCC3)c2c1` [compound 186, N-(4-(hydroxymethyl)tetrahydro-2H-pyran-4-yl)-2,7-dimethyl-5-((4-methylthiazol-5-yl)methoxy)benzofuran-3-carboxamide] it is 1000 to 20000 nM; for `Cc1ncsc1COc1cc(C#N)c2oc(C)c(C(=O)NC3(CO)CCOCC3)c2c1` [compound 188, 7-cyano-N-(4-(hydroxymethyl)tetrahydro-2H-pyran-4-yl)-2-methyl-5-((4-methylthiazol-5-yl)methoxy)benzofuran-3-carboxamide] it is 1000 to 20000 nM. For `Cc1ncsc1COc1ccc2oc(C)c(C(=O)NC3(CO)CNC3)c2c1` [compound 201, N-(3-(hydroxymethyl)azetidin-3-yl)-2-methyl-5-((4-methylthiazol-5-yl)methoxy)benzofuran-3-carboxamide], under setting [6], the IC50 lay within 1000 to 20000 nM.

The molecule `Cc1oc2ccc(OCc3cccnc3C(F)(F)F)cc2c1C(=O)NC1(CO)CNC1` [compound 202, N-(3-(hydroxymethyl)azetidin-3-yl)-2-methyl-5-((2-(trifluoromethyl)pyridin-3-yl)methoxy)benzo-furan-3-carboxamide] had an IC50 under setting [6] of 1000 to 20000 nM. `Cc1oc2ccc(OCc3cccnc3O)c(F)c2c1C(=O)NC1(CO)CCOCC1` [compound 329, 4-fluoro-N-(4-(hydroxymethyl)tetrahydro-2H-pyran-4-yl)-2-methyl-5-((2-oxo-1,2-dihydropyridin-3-yl)methoxy)benzofuran-3-carboxamide]: the IC50 under setting [1] lay within 1000 to 20000 nM. On to `Cc1ncsc1COc1ccc2oc(C)c(C(=O)N(C)C3(C(N)=O)COC3)c2c1` [compound 589, N-(3-carbamoyloxetan-3-yl)-N,2-dimethyl-5-((4-methylthiazol-5-yl)methoxy)benzofuran-3-carboxamide], for which, under setting [3], the IC50 was ≤ 1000 nM.

As to `Cc1ncsc1COc1ccc2oc(C)c(C(=O)N(C)C3(C#N)COC3)c2c1` [compound 599, N-(3-cyanooxetan-3-yl)-N,2-dimethyl-5-((4-methylthiazol-5-yl)methoxy)benzofuran-3-carboxamide], the IC50 under setting [3] was in the range of 1000 to 20000 nM. For the molecule `Cc1oc2ccc(OCc3ccoc3)cc2c1C(=O)O` [cpd 001, 5-(furan-3-ylmethoxy)-2-methylbenzofuran-3-carboxylic acid], under setting [5], the IC50 is 1000 to 20000 nM. With `Cc1oc2ccc(OCc3cnco3)cc2c1C(=O)O` [cpd 002, 2-methyl-5-(oxazol-5-ylmethoxy)benzofuran-3-carboxylic acid], the concentration for half-maximal inhibition (IC50) under setting [5] is ≥ 20000 nM. On to `Cc1oc2ccc(OCc3ccccn3)cc2c1C(=O)O` [cpd 005, 2-methyl-5-(pyridin-2-ylmethoxy)benzofuran-3-carboxylic acid], for which the IC50 under setting [5] lay within 1000 to 20000 nM. Under setting [5], `Cc1oc2ccc(OCc3cccnc3)cc2c1C(=O)O` [cpd 006, 2-methyl-5-(pyridin-3-ylmethoxy)benzofuran-3-carboxylic acid] gave an IC50 of 1000 to 20000 nM. `Cc1oc2ccc(OCc3cccnn3)cc2c1C(=O)O` [cpd 007, 2-methyl-5-(pyridazin-3-ylmethoxy)benzofuran-3-carboxylic acid]: the IC50 under setting [5] is 1000 to 20000 nM. Under setting [5], `Cc1oc2ccc(OCc3ccn(C)n3)cc2c1C(=O)O` [cpd 009, 2-methyl-5-((1-methyl-1H-pyrazol-3-yl)methoxy)benzofuran-3-carboxylic acid] displayed an IC50 of 1000 to 20000 nM. Consider `Cc1oc2ccc(OCc3cnn(C)c3)cc2c1C(=O)O` [cpd 010, 2-methyl-5-((1-methyl-1H-pyrazol-4-yl)methoxy)benzofuran-3-carboxylic acid], for which the IC50 under setting [5] was in the range of 1000 to 20000 nM. Consider `Cc1oc2ccc(OCc3ccsc3)cc2c1C(=O)O` [cpd 011, 2-methyl-5-(thiophen-3-ylmethoxy)benzofuran-3-carboxylic acid], for which, under setting [5], the concentration for half-maximal inhibition (IC50) fell in the range of 1000 to 20000 nM. Turning to `Cc1oc2ccc(OCc3cccs3)cc2c1C(=O)O` [cpd 012, 2-methyl-5-(thiophen-2-ylmethoxy)benzofuran-3-carboxylic acid], under setting [5], the IC50 was 1000 to 20000 nM. On the same count and under the same terms, the same measure for `Cc1oc2ccc(OCc3nccs3)cc2c1C(=O)O` [cpd 013, 2-methyl-5-(thiazol-2-ylmethoxy)benzofuran-3-carboxylic acid]: 1000 to 20000 nM; for `Cc1oc2ccc(OCc3cncs3)cc2c1C(=O)O` [cpd 014, 2-methyl-5-(thiazol-5-ylmethoxy)benzofuran-3-carboxylic acid]: 1000 to 20000 nM; for `Cc1oc2ccc(OCC3CCOCC3)cc2c1C(=O)O` [cpd 015, 2-methyl-5-((tetrahydro-2H-pyran-4-yl)methoxy)benzofuran-3-carboxylic acid]: 1000 to 20000 nM.

With `Cc1oc2ccc(OCc3ccc(C(F)(F)F)o3)cc2c1C(=O)O` [cpd 018, 2-methyl-5-((5-(trifluoromethyl)furan-2-yl)methoxy)benzofuran-3-carboxylic acid], the IC50 under setting [5] was 1000 to 20000 nM. For `Cc1oc2ccc(OCc3cnco3)cc2c1C(=O)N[C@H]1CCNC1` [cpd 020, (S)-2-methyl-5-(oxazol-5-ylmethoxy)-N-(pyrrolidin-3-yl)benzofuran-3-carboxamide], under setting [5], the IC50 was 1000 to 20000 nM.

Under setting [5], `Cc1oc2ccc(OCc3ccncc3)cc2c1C(=O)N[C@H]1CCNC1` [cpd 021, (S)-2-methyl-5-(pyridin-4-ylmethoxy)-N-(pyrrolidin-3-yl)benzofuran-3-carboxamide] displayed an IC50 of 1000 to 20000 nM.

`Cc1oc2ccc(OCc3ccn(C)n3)cc2c1C(=O)N[C@H]1CCNC1` [cpd 023, (S)-2-methyl-5-((1-methyl-1H-pyrazol-3-yl)methoxy)-N-(pyrrolidin-3-yl)benzofuran-3-carboxamide] had a half-inhibitory concentration (IC50) under setting [5] of 1000 to 20000 nM. On the same count and under the same terms, the same measure for `Cc1oc2ccc(OCc3cnccn3)cc2c1C(=O)NC1CCNC1=O` (stereo not drawn) [cpd 031, 2-methyl-N-(2-oxopyrrolidin-3-yl)-5-(pyrazin-2-ylmethoxy)benzofuran-3-carboxamide]: 1000 to 20000 nM; for `Cc1oc2ccc(OCc3cncnc3)cc2c1C(=O)NC1CCNC1=O` (stereo not drawn) [cpd 032, 2-methyl-N-(2-oxopyrrolidin-3-yl)-5-(pyrimidin-5-ylmethoxy)benzofuran-3-carboxamide]: 1000 to 20000 nM; for `Cc1ccncc1COc1ccc2oc(C)c(C(=O)NC3CCOC3)c2c1` (stereo not drawn) [cpd 034, 2-methyl-5-((4-methylpyridin-3-yl)methoxy)-N-(tetrahydrofuran-3-yl)benzofuran-3-carboxamide]: 1000 to 20000 nM. On the same count and under the same terms, the figure for `Cc1ccncc1COc1ccc2oc(C)c(C(=O)NC3CCNC3=O)c2c1` (stereo not drawn) [cpd 037, 2-methyl-5-((4-methylpyridin-3-yl)methoxy)-N-(2-oxopyrrolidin-3-yl)benzofuran-3-carboxamide] is 1000 to 20000 nM. The same measure, in the same setting: the figure for `Cc1oc2ccc(OCc3ccccn3)cc2c1C(=O)NC1CCN(C)CC1` [cpd 039, 2-methyl-N-(1-methylpiperidin-4-yl)-5-(pyridin-2-ylmethoxy)benzofuran-3-carboxamide] is 1000 to 20000 nM.
